Assay results taken from article PMC2409523, “Hormonal impact of the 17α-hydroxylase/C17,20-lyase inhibitor abiraterone acetate (CB7630) in patients with prostate cancer” (British Journal of Cancer, 2004).
pKi: −log10 of the molar value. “And” between values parts separate entries of the source, which are not always exact repeats. Identical values can stand only once. One block for each compound: values may come before it.

Key:
[1] = system: cortisol synthesis; assay: Short Synacthen test in Study C; assay type: in vivo, human
Description: The schedule sampling differed slightly with samples removed at 0930 and 1730 on the day of treatment and thereafter in the morning on Days 2, 3, 4, 7, 8, 9, 10, 11, 14, 21 and 28. In Study C, a short Synacthen test was also performed prior to therapy and again around Day 11.

[2] = system: testosterone synthesis; assay: Study A: single dose study in castrate males with prostate cancer, serum hormone levels; assay type: in vivo, human
Description: Significant suppression was defined as either testosterone <0.14 nmol l^−1 in individual patients with a pretreatment value of <0.6 nmol l^−1 or a ⩾75% reduction in individual patients with a pretreatment value of ⩾0.6 nmol l^−1.
This was a single-centre, open-label, phase one, single-dose study in which sequential cohorts of three medically or surgically castrate patients were to receive treatment at five dose levels: starting at 10 mg and increasing to 30, 100, 200 and 500 mg. […] A confirmatory testosterone level of between 0.2 and 2.0 nmol l^−1 was also required.
(§1) Serum samples for endocrine analysis were obtained at 0, 2, 4, 8 and 24 h on a single day in the week prior to treatment commencement and then on Days 1, 2, 3, 4 and 7. As the duration of testosterone suppression was longer than originally anticipated, additional samples were added on Days 10, 14 and 21. The serum samples were analysed for testosterone, cortisol, 17 α-hydroxyprogesterone (17HP), androstenedione, LH and follicle-stimulating hormone (FSH) using commercially available kits. However, the DPC Coat-a-count kit for testosterone was sensitised using a larger volume of sample/standard and extension of the standard curve. […] All endocrine analyses were conducted by radioimmunoassay except for LH and FSH, which were by enzyme immunoassay.

[3] = system: testosterone synthesis; assay: Study C: multiple dose study (Days 1–12) in noncastrate males with prostate cancer, serum hormone levels; assay type: in vivo, human
Description: If this level of suppression was achieved, then it was planned to escalate the doses still higher to establish whether further suppression of testosterone was possible. […] This was a three-centre, open-label, phase one, multidose study in which sequential cohorts of three noncastrate patients were to receive treatment with abiraterone daily for 12 days. […] The starting dose of 500 mg was based upon the data from the single-dose studies. It was planned that a dose level would be expanded to six patients if any patient experienced toxicity ⩾ Grade III or if there was a significant suppression of serum cortisol in one patient (defined as per Study B above). All patients were followed for 28 days for any sign of toxicity. […] The schedule sampling differed slightly with samples removed at 0930 and 1730 on the day of treatment and thereafter in the morning on Days 2, 3, 4, 7, 8, 9, 10, 11, 14, 21 and 28. In Study C, a short […] test was also performed prior to therapy and again around Day 11.

[4] = system: 17α hydroxylation; set-up: method as in Barrie et al, 1994; Dowsett et al, 1988; settings: preclinical studies, correlative evidence of inhibition of 17α hydroxylation; ref Barrie et al, 1994; Dowsett et al, 1988; cited from earlier work
[5] = system: testosterone synthesis; assay: Study B: single dose study in noncastrate males with prostate cancer, serum hormone levels; assay type: in vivo, human
Description: This was a single dose study in noncastrate males (testosterone level ⩾9.0 nmol l^−1) to determine the dose of abiraterone acetate that was sufficient to cause suppression of testosterone synthesis to castrate levels (⩽2.0 nmol l^−1).
This was a single-centre, open-label, phase one, single-dose study in which sequential cohorts of three noncastrate patients were to be treated at four dose levels: 200, 500, 650 and 800 mg. The starting dose of 200 mg was chosen when the results of study A were available.
All patients were required to have a normal testosterone level prior to study entry (i.e. ⩾9.0 nmol l^−1) as well as normal gonadotrophin levels (Luteinising Hormone (LH) ⩽13 IU l^−1).
as §1

[6] = Pharmacokinetics in patient plasma (LC-MS); assay type: in vivo, human; settings: for Mean AUC: across all three studies
Description: Sample extracts were analysed by a fully validated liquid chromatography mass spectrometry method. The instrument consisted of Wisp Model 717 autosampler including a Model 600MS system controller with a quaternary U6K LC pump. A Finnigan MAT TSQ 700 triple quadrupole mass spectrometer was used as the detection system, together with Finnigan MAT ICIS and ICL software for data capture and processing (ThermoQuest Ltd, San Jose, CA, USA). The separation of analytes was performed on a Supelcosil LC-ABZ (5 μm, 250 × 4.6 mm) analytical column protected by a guard column (Supelco, Bellefonte, PA, USA). The mobile phase consisted of 570 ml of 20 mM ammonium acetate solution, 100 ml tetrahydrofuran and 1330 ml acetonitrile and was delivered at a flow rate of 1 ml min^−1 throughout the system. Column eluant was subjected to electrospray ionisation and monitored by selected ion monitoring (SIM) of protonated pseudo-molecular ions of authentic standards of abiraterone acetate and abiraterone, and GP488 (an analogue of abiraterone used as internal standard). For SIM, the scan width was 0.25 and the total scan time was 2.99 s. Also, heated capillary temperature=250°C, spray voltage=4.5 kV, collision offset=−49.9 V and electron multiplier voltage=1200 eV. Samples were extracted as follows: 50 μl of acetonitrile and 40 μl of 50 μM GP488 internal standard were added to 500 μl of patient plasma. […] The dried residue was reconstituted by vortexing in 150 μl of acetonitrile and transferred into autosampler vials. Aliquots (100 μl) of these samples were injected onto the LC column. […] A comprehensive PK profile (Cmax, Tmax, T1/2α T1/2 and Kabs) was determined for each patient. Pharmacokinetic parameters were evaluated using WinNonLin Software® and were conducted at The Institute of Cancer Research (Sutton). Blood was sampled for analysis of abiraterone concentration prior to drug administration and at the following times on Day 1: 30 min, 1, 2, 4, 6, 8 and 12 h. In the multidose study, samples were also drawn prior to treatment on Days 2, 3, 4, 7, 8, 9, 10, 11 and 14 with additional samples on Days 21 and 28. Samples (7 ml) were collected into vacutainer tubes (BD, Rutherford, NJ, USA) containing EDTA and immediately centrifuged to separate the plasma. At least 2 ml of plasma was transferred into polypropylene tubes (NUNC) and frozen at –20° until analysis.

[7] = Safety and tolerability in the three phase one trials; assay type: in vivo, human
Description: Prior to the first dose of therapy a complete history, physical examination and assessment of performance status was performed on all patients. Full-blood count, electrolytes and creatinine, liver function, urinanalysis, electrocardiograph and chest X-ray were obtained from all patients. The ECG was repeated 6 h after dosing. On the day of therapy heart rate, blood pressure and temperature were recorded every 4 h and then daily at the time of blood sampling. Thereafter, full-blood count, electrolytes, creatinine and liver function were re-evaluated on Days 2 and 7. Toxicity was recorded using the NCI-CTG Expanded Common Toxicity Criteria V1.

[8] = set-up: method as in Barrie et al, 1994; Dowsett et al, 1988; settings: rodent model, intraperitoneal administration; ref Barrie et al, 1994; Dowsett et al, 1988; cited from earlier work
[9] = target: 17α-hydroxylase/C17,20-lyase; set-up: method as in Barrie et al, 1997; Potter et al, 1995; settings: inhibition of the 17α-hydroxylase/C17,20-lyase enzyme; ref Barrie et al, 1997; Potter et al, 1995; read-out: Kiapp; cited from earlier work
[10] = 500 mg daily Days 1–12, noncastrate patients
[11] = single oral dose 500 mg, noncastrate patients

- response to Synacthen ([1]; 500 mg daily, all three patients, by Day 11): abnormal response
- mean change in cortisol in response to Synacthen ([1]; 500 mg daily, by Day 11, baseline 294.3 nmol l^−1): 42 nmol/L
- mean change in cortisol in response to Synacthen (percent) ([1]; 500 mg daily, by Day 11, baseline +77%): +10%
- cortisol response to the short Synacthen test ([1]; 800 mg daily, all three patients, Day 11): abnormal
- mean change in cortisol levels in response to Synacthen ([1]; 800 mg daily, by Day 11, baseline 385 nmol l^−1): 65.3 nmol/L
- mean change in cortisol levels in response to Synacthen (percent) ([1]; 800 mg daily, by Day 11, baseline 120%): 23%
- serum cortisol levels [3, 10]: remained within normal limits
- fall of evening cortisol from baseline evening cortisol ([3]; multidose study, evening of Day 1, three patients): 60% and 71% and 69%
- change in cortisol level ([5]; single oral dose, noncastrate patients): No change
Compound: CC(=O)O[C@H]1CC[C@@]2(C)C(=CC[C@@H]3[C@@H]2CC[C@]2(C)C(c4cccnc4)=CC[C@@H]32)C1 [abiraterone acetate]
- patients with suppression of testosterone levels to <0.14 nmol l^−1 ([2]; single dose of 500 mg, castrate males): four out of six
- testosterone level reached ([3]; 500 mg daily Days 1–12, all three noncastrate patients): ≤ 2.0 nmol/L
- duration of substantial testosterone suppression [3, 10]: up to 9 days
- time of maximal testosterone suppression [3, 10]: 1 to 3 days
- target testosterone level of ⩽0.7 nmol l^−1 ([3]; 500 mg daily Days 1–12, three noncastrate patients): did not reach the target level
- day on which target testosterone suppression (⩽0.7 nmol l^−1) was obtained ([3]; 800 mg daily Days 1–12, first patient): 1 days
- testosterone level ([3]; 800 mg daily, final patient, by Day 2): 1.7 nmol/L
- rise in LH ([3]; 800 mg daily, final patient, from Day 3): two-fold rise
- testosterone level ([3]; 800 mg daily, final patient, from Day 4): > 2.0 nmol/L
- testosterone levels for the duration of treatment ([3]; 800 mg daily, first patient): ≤ 2.0 nmol/L
- increase in LH ([3]; 800 mg daily, first patient, from Day 3): three-fold increase
- duration of target testosterone suppression ([3]; 800 mg daily, first patient, then reversed with rising LH): 3 days
- day on which target testosterone suppression (⩽0.7 nmol l^−1) was reached ([3]; 800 mg daily, second patient): 4 days
- testosterone level ([3]; 800 mg daily, second patient, Day 7, otherwise below target level): 0.77 nmol/L
- increase of Luteinising Hormone (LH) levels ([3]; 800 mg days 1–12, two out of three patients, overcame suppression within 3 days): two- to three-fold
- effect on FSH levels ([3]; 800 mg, repeat dose): no effect
- dose required to maintain testosterone suppression to target levels ([3]; repeat dose studies, noncastrate males): at least 800 mg
- weight of the ventral prostate [4]: reduced weight of the ventral prostate
- LH levels ([5]; single oral dose 200 mg, noncastrate): did not alter
- level of testosterone relative to baseline ([5]; single oral dose 500 mg, noncastrate patients, Day 3, each case): less than 50%
- saturation of drug absorption ([6]; at the dose levels studied, all three studies combined): no evidence of saturation of drug absorption
- grade three or four toxic events ([7]; all three trials): no grade three or four toxic events
- resting heart rate or blood pressure ([7]; all three trials): No alteration
- serious adverse events ([7]; all three trials): no serious adverse events attributable to treatment
- tolerability ([7]; all three trials): very well tolerated
- haematologic or biochemical effects ([7]; any dose level or schedule evaluated): No haematologic or biochemical effects
- systemic effects reported by individual patients ([7]; no relation to dose or schedule apparent): Headache, hot flushes, a mild increase in abdominal and testicular pain, and a transient depression in mood (all grade II)
- deacetylation [8]: rapid deacetylation

- serum cortisol level ([2]; one patient at 500 mg, Day 1, baseline 409 nmol l^−1, felt inconsistent with suppression due to drug): 81 nmol/L
- plasma levels of abiraterone ([6]; all doses greater than or equal to 200 mg): Detectable levels
- Mean AUC ([6]; dose 200 mg): 0.31 µM·h
- Mean AUC ([6]; dose 500 mg): 1.22 µM·h
- Mean AUC ([6]; dose 800 mg): 5.6 µM·h
Compound: C[C@]12CC[C@H](O)CC1=CC[C@@H]1[C@@H]2CC[C@]2(C)C(c3cccnc3)=CC[C@@H]12 [abiraterone, 17-(3-pyridyl)androsta-5,16-dien-3β-ol]
- reduction in testosterone ([2]; single oral dose 200 mg, one castrate patient, within the first 24 h): 75%
- levels of 17-hydroxyprogesterone ([2]; single oral dose 500 mg, castrate males): no corresponding reduction
- mean androstenedione levels ([2]; single oral dose 500 mg, castrate males, around Day 2): reduction in mean androstenedione levels
- patients with reduction in testosterone to the target level ([2]; single oral dose 500 mg, first cohort of three castrate patients, target <0.14 nmol l^−1 or ⩾75% reduction): all three patients
- patients with target testosterone suppression ([2]; single oral dose 500 mg, three additional castrate patients): one of these patients
- days over which testosterone suppression was sustained ([2]; single oral dose 500 mg, two of the three castrate patients, post-therapy): 2 to 5 days
- effect on testosterone ([2]; single oral dose 10, 30 and 100 mg, castrate males): no consistent effect
- pKi [9]: 9.30
- testosterone suppression ([5]; single oral dose 200 mg, first noncastrate patient): No testosterone suppression
- reduction in testosterone level from baseline ([5]; single oral dose 500 mg, all three noncastrate patients): more than 50%
- recovery of LH to pretreatment levels [5, 11]: ≤ 10 days
- recovery of testosterone to pretreatment levels after nadir [5, 11]: 6 to 9 days
- time of testosterone nadir [5, 11]: second day after therapy
- rise in LH levels ([5]; single oral dose 500 mg, noncastrate patients, maximal on Day 3): 47–75%
